Results taken from patent publication US20250026916A1, “ULTRAVIOLET ABSORBER AND USE THEREOF” (RIANLON (ZHONGWEI) NEW MATERIAL CO., LTD., priority 2023, published 2025).

Key:
[1] = Absorption spectrum in chloroform (UV-visible spectrophotometer); assay type: physicochemical; settings: chloroform solution 10 mg/L; for Peak area ratio in waveband 280-450 nm: total
Experimental: The absorption spectra were measured using an ultraviolet-visible spectrophotometer, and the instrument model is (UV-2600, Shimadzu corporation, Japan). The absorption spectra were compared in Table 1 below.

[2] = general description of the commercial product; cited from earlier work
[3] = Color test, Gardner color scale of DMF solution; assay type: physicochemical; settings: 2 g dissolved in 18 g DMF
Experimental: The completely dissolved solution was transferred to a cuvette, and the Gardner color scale value transmitted by the solvent was measured. The instrument was a Ci7600 bench spectrophotometer (X-rite, the United States).

[4] = Solubility/compatibility test in typical oligomer resins; settings: mass soluble in 100 g of oligomer, 20° C.
Experimental: Test method: The mass of soluble ultraviolet absorber in 100 g of oligomer when the ambient temperature is 20° C.

SMILES | Absorption cut-off wavelength [1] [nm] | Maximum absorption peak in red shift direction [1] [nm] | Peak area ratio in waveband 280-360 nm [1] [%] | Peak area ratio in waveband 361-380 nm [1] [%] | Peak area ratio in waveband 381-400 nm [1] [%] | Peak area ratio in waveband 401-450 nm [1] [%] | Peak area ratio in waveband 280-450 nm [1] [%] | Wavelength to which absorption can be red-shifted [2] [nm] | Gardner color scale [3] | Solubility in cyclohexanedimethylene diisocyanate (H6XDI) [4] [g] | Solubility in hexamethylene diisocyanate (HDI) trimer [4] [g] | Solubility in tripropylene glycol diacrylate [4] [g]
CCCCN1C(=O)c2cc3nn(-c4cc(C(C)(C)CC(C)(C)C)cc(C(C)(C)c5ccccc5)c4O)nc3cc2C1=O [Carboprotect, reference compound] | 435 | 374 | 56.2 | 14.6 | 18.5 | 10.7 | 100 | 420 | 11.5 | – | – | –
CCCCCCCCCCCCSc1ccc2nn(-c3cc(C)cc(C(C)(C)C)c3O)nc2c1 [RSUV-1] | 416 | 369 | 58.1 | 26.5 | 13.6 | 1.8 | 100.0 | – | 3.0 | 4.2 | 4.6 | 3.9
CCCCCCCCCCCCS(=O)(=O)c1ccc2nn(-c3cc(C)cc(C(C)(C)C)c3O)nc2c1 [RSUV-2] | 430 | 370 | 65.4 | 18.1 | 11.8 | 4.7 | 100.0 | – | 5.2 | 3 | 3.5 | 3.8
Cc1cc(-n2nc3ccc(Cl)cc3n2)c(O)c(C(C)(C)C)c1 [UV-326, 2′-(2′-hydroxy-3′-tert-butyl-5′-methylphenyl)-5-chlorobenzotriazole, reference compound] | 410 | – | – | – | – | – | – | – | – | – | – | –
